The source of these data is ChEMBL document CHEMBL1201862, “PubChem BioAssay data set” (2004).

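Five compound concentrations were applied to cells in 96-well plates for 48 hours; endpoints were derived by simple linear interpolation of the resulting dose-response curve. GI50: concentration for 50% inhibition of growth.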 Calls of active or inactive are those of the source. No stated cut-off is given here; in the data, active = GI50 up to about 1.1 µM and inactive = higher. Where only a bound is given, the exact number is not on record here.

Test systems include NCI-H23; K562; SNB-19; RXF 393; UACC-257; HOP-92; SW-620; SK-MEL-28; OVCAR-4; SF-268; CCRF-CEM; UACC-62; M14; NCI-H460; NCI-H226; SK-MEL-2; HCT-15; A498.
What all share (assay): DTP human tumour cell line panel, 48 h

As to `NCC1(N2CCOCC2)C2CCCC21CNc1ccccc1` (centres undefined), the GI50 in the assay with NCI-H23 was > 100 µM (inactive); with K562, 90.6 µM (inactive); in the assay on SNB-19 it was > 100 µM (inactive); in the assay with RXF 393, 56.4 µM (inactive); in the assay with UACC-257 it was > 100 µM (inactive); with HOP-92, 41.9 µM (inactive). In addition, the GI50 with SW-620, in the assay with SK-MEL-28, in the assay on OVCAR-4, in the assay on SF-268, with CCRF-CEM and with UACC-62 was > 100 µM (inactive) each time. The GI50 in the assay with M14 and in the assay on NCI-H460 was > 100 µM (inactive) in each case.

Regarding `CC1=NN(C(=O)CC(=O)Nc2ccccc2F)C(=O)C1/N=N/c1ccccc1[N+](=O)[O-]` (centres undefined), the GI50 was 94.6 µM (inactive) in the assay on NCI-H23; > 100 µM (inactive) in the assay with K562; > 100 µM (inactive) with SNB-19; 45.1 µM (inactive) with RXF 393; 97.3 µM (inactive) with UACC-257; > 100 µM (inactive) in the assay with SW-620. In addition, the GI50 is > 100 µM (inactive) with SK-MEL-28; > 100 µM (inactive) in the assay on NCI-H226; > 100 µM (inactive) with SK-MEL-2; above 100 µM with HCT-15; 70.6 µM (inactive) in the assay with OVCAR-4; > 100 µM (inactive) in the assay on SF-268. Further, the GI50 was 79.6 µM (inactive) in the assay on CCRF-CEM, 26.2 µM (inactive) in the assay with UACC-62 and > 100 µM (inactive) in the assay on M14.

Regarding `NNC(=O)C1CCC(=O)N1S(=O)(=O)c1ccccc1` (centres undefined), the GI50 in the assay on NCI-H23, in the assay on K562, in the assay with SNB-19, in the assay on RXF 393, in the assay on UACC-257 and with HOP-92 was > 100 µM (inactive) in each case. The GI50 is > 100 µM (inactive) in the assay on SW-620; > 100 µM (inactive) in the assay on SK-MEL-28; > 100 µM (inactive) with NCI-H226; > 100 µM (inactive) in the assay on SK-MEL-2; above 100 µM in the assay on HCT-15; > 100 µM (inactive) with OVCAR-4. Besides, the GI50 with SF-268, with CCRF-CEM, in the assay with UACC-62, with M14 and in the assay on NCI-H460 was > 100 µM (inactive) each time.

With `C=C1CN2CCc3c([nH]c4ccccc34)C2CC1CC(=O)N(C)C` (centres undefined), the GI50 in the assay with NCI-H23 was > 309 µM (inactive); with K562 it was > 309 µM (inactive); in the assay on SNB-19 it was > 309 µM (inactive); with RXF 393, > 309 µM (inactive); in the assay with UACC-257, > 309 µM (inactive); in the assay with HOP-92, 126 µM (inactive). The GI50 with SW-620 was > 309 µM (inactive); in the assay on SK-MEL-28, > 309 µM (inactive); in the assay with NCI-H226, > 309 µM (inactive); in the assay with SK-MEL-2, > 309 µM (inactive); in the assay with HCT-15, above 309 µM; with SF-268, > 309 µM (inactive). Moreover, the GI50 in the assay with CCRF-CEM, in the assay with UACC-62 and in the assay on NCI-H460 was > 309 µM (inactive) in each case.

Turning to `CN(C)/C(=N/C(=O)Nc1ccccc1)SCc1ccccc1`, the GI50 in the assay on A498 was > 100 µM (inactive); in the assay on NCI-H23, > 100 µM (inactive); with K562, 76.9 µM (inactive); in the assay with SNB-19, > 100 µM (inactive); in the assay with RXF 393, 58.9 µM (inactive); in the assay on UACC-257 it was > 100 µM (inactive). The GI50 in the assay on SW-620 was > 100 µM (inactive); in the assay with SK-MEL-28 it was > 100 µM (inactive); with NCI-H226, > 100 µM (inactive); with SK-MEL-2, 85.1 µM (inactive); in the assay on HCT-15 it was above 100 µM; in the assay on OVCAR-4 it was > 100 µM (inactive). For the same compound, the GI50 with SF-268, with CCRF-CEM, in the assay with UACC-62 and with M14 was > 100 µM (inactive) each time.

In the case of `CC(=O)/C(=C\c1ccco1)C(=O)Nc1ccccc1`, the GI50 with NCI-H23, in the assay on K562, in the assay with SNB-19, with RXF 393, with UACC-257 and in the assay on HOP-92 was > 100 µM (inactive) in each case. In addition, the GI50 was > 100 µM (inactive) in the assay with SW-620; > 100 µM (inactive) in the assay with SK-MEL-28; > 100 µM (inactive) with SK-MEL-2; above 100 µM with HCT-15; > 100 µM (inactive) in the assay with OVCAR-4; > 100 µM (inactive) in the assay with SF-268. Moreover, the GI50 in the assay on CCRF-CEM, in the assay on UACC-62, in the assay with M14 and in the assay on NCI-H460 was > 100 µM (inactive) in each case.

Take `O=C(O)CC12C3C4C5C3C1C5C42` (centres undefined): the GI50 in the assay with A498, in the assay with NCI-H23, with K562, in the assay with SNB-19, with UACC-257 and in the assay with SW-620 was > 100 µM (inactive) throughout. Further, the GI50 with SK-MEL-28 was > 100 µM (inactive); in the assay on SK-MEL-2, > 100 µM (inactive); in the assay with HCT-15 it was above 100 µM; with OVCAR-4, > 100 µM (inactive); in the assay on SF-268 it was > 100 µM (inactive); with CCRF-CEM it was > 100 µM (inactive). Further, the GI50 with UACC-62, with M14 and in the assay on NCI-H460 was > 100 µM (inactive) in each case.

For the compound `CSC1=Nc2ccccc2N=C(c2ccc(Cl)cc2)C1`, the GI50 in the assay with NCI-H23 was 31.7 µM (inactive); with K562, 34.8 µM (inactive); with SNB-19, > 100 µM (inactive); in the assay with RXF 393, 20.4 µM (inactive); in the assay on UACC-257, 27.7 µM (inactive); in the assay on SW-620, 39.1 µM (inactive). For the same compound, the GI50 in the assay with SK-MEL-28 is 42 µM (inactive); with NCI-H226, > 100 µM (inactive); in the assay with SK-MEL-2, 25.4 µM (inactive); with HCT-15, 26.9 µM; in the assay with OVCAR-4 it was > 100 µM (inactive); with SF-268, 42.3 µM (inactive). For the same compound, the GI50 in the assay with CCRF-CEM was 27.9 µM (inactive); with UACC-62 it was 42.8 µM (inactive); in the assay with M14 it was 36.1 µM (inactive); in the assay with NCI-H460, 40.2 µM (inactive).

For the compound `CO[C@@H]1C=C[C@@]23c4cc5c(cc4CN(C[C@@H]2O)[C@H]3C1)OCO5` [(+)-HAEMANTHAMINE], the GI50 with NCI-H23 is 23.6 µM (inactive); with K562 it was 7.67 µM (inactive); in the assay on SNB-19 it was 33.3 µM (inactive); with RXF 393, 18.7 µM (inactive); with UACC-257, 22.6 µM (inactive); in the assay on HOP-92, 14.3 µM (inactive). Moreover, the GI50 in the assay with SW-620 is 15.5 µM (inactive); in the assay on SK-MEL-28, 18.9 µM (inactive); in the assay with NCI-H226 it was 25.4 µM (inactive); with SK-MEL-2, 9.16 µM (inactive); with HCT-15, 17.4 µM; in the assay on OVCAR-4, 3.85 µM (inactive). In addition, the GI50 in the assay with SF-268 was 29.7 µM (inactive); in the assay on CCRF-CEM, 8.34 µM (inactive); in the assay on UACC-62, 12.9 µM (inactive); in the assay with M14 it was 5.94 µM (inactive); in the assay on NCI-H460 it was 15.7 µM (inactive).

On to `Cn1cc(C(=O)c2ccccc2)c2ccccc2c1=O`, for which the GI50 in the assay on RXF 393 is > 100 µM (inactive); with UACC-257, > 100 µM (inactive); in the assay with HOP-92 it was 62.8 µM (inactive); with SW-620, > 100 µM (inactive); in the assay on SK-MEL-28, > 100 µM (inactive); in the assay on SK-MEL-2, > 100 µM (inactive). Besides, the GI50 in the assay on HCT-15 is above 100 µM; in the assay with OVCAR-4, > 100 µM (inactive); with SF-268, > 100 µM (inactive); in the assay with CCRF-CEM, > 100 µM (inactive); in the assay on UACC-62 it was 49.2 µM (inactive); with M14, > 100 µM (inactive). For the same compound, in the assay on NCI-H460, the GI50 is > 100 µM (inactive).

In general, GI50 refers to the concentration giving 50% growth inhibition.
